This note sets out measurements from US12421235B2, “Bridged tricyclic carbamoylpyridone compounds and uses thereof” (Gilead Sciences, Inc., priority 2020, dated 2025).

Data set [1] in a line: Cytotoxicity assay in MT-4 cells. The format is cell-based. As to conditions: human, uninfected MT-4 cells, Cell Titer Glo. The protocol: (§1) Compounds were tested in a high-throughput 384-well assay format for their ability to inhibit the replication of HIV-1 (IIIB) in MT-4 cells. Compounds were serially diluted (1:3) in DMSO on 384-well polypropylene plates and further diluted 200-fold into complete RPMI media (10% FBS, 1% P/S) using the Biotek Micro Flow and Labcyte ECHO acoustic dispenser. Each plate contained up to 8 test compounds, with negative (No Drug Control) and 5 μM AZT positive controls. MT-4 cells were pre-infected with 10 μL of either RPMI (mock-infected) or a fresh 1:250 dilution of HIV-1 IIIB concentrated virus stock. Infected and uninfected MT-4 cells were further diluted in complete RPMI media and added to each plate using a Micro Flow dispenser. After 5 days incubation in a humidified and temperature controlled incubator (37° C.), Cell Titer Glo (Promega) was added to the assay plates and chemiluminescence read using an Envision plate-reader. EC50 values were defined as the compound concentration that causes a 50% decrease in luminescence signal, and were calculated using a sigmoidal dose-response model to generate curve fits. Cytotoxicity Assay in MT-4 Cells Assays were performed as above except uninfected MT-4 cells were added to each well containing test compound. In addition, 10 μM puromycin was added to the last column of each assay plate to assess a base level of cytotoxicity.

Data set [2] relates to HIV-1 (IIIB) in MT-4 cells. The data set can be described thus: HIV MT-4 antiviral assay. As to conditions: Human immunodeficiency virus 1, MT4, 120 h, 5 days, Cell Titer Glo. The format is cell-based. The procedure: Example 47: HIV MT-4 Antiviral and Cytotoxicity Assay
Antiviral Assay in MT-4 Cells
as §1, with “fits.” for “fits. Cytotoxicity Assay in MT-4 Cells Assays were performed as above except uninfected MT-4 cells were added to each well containing test compound. In addition, 10 μM puromycin was added to the last column of each assay plate to assess a base level of cytotoxicity.”

Data set [3] is described as follows: High throughput microsomal stability assay (human liver microsomes). The data set is classed as in vitro ADME. As to conditions: for HLM stability: human liver microsomes, 1 uM compound, NADPH + UDPGA cofactors, 37 C. The procedure: Example 49: High Throughput Microsomal Stability Assay
Metabolic stability of compounds was assessed using Human, or Rat Liver Microsomal assays (Corning). In this assay, 10 nL compounds at concentration of 1 mM in 100% DMSO were dispensed into 384-well polypropylene plates using the Echo 550 acoustic liquid dispenser (Labcyte®). Each plate contained 384 wells with a single test compound in each well.
A solution of human (Corning® Gentest™ Human Mixed Pooled Microsomes), or rat (Corning® Gentest™ Rat [Sprague-Dawley] Pooled Liver Microsomes) liver microsomes at 2 mg/ml in 100 mM K2HPO4/KH2PO4 pH 7.4 with Alamethicin from Trichoderma viride (Sigma-Aldrich) 0.0225 mg/ml were incubated on ice for 15 minutes. 5 uL of this solution was added to individual wells following 15 minute incubation at room temperature; and supplemented with 5 uL NADPH Regenerating Solution of cofactors (Corning® Gentest™ UGT Reaction Mix) containing 100 mM K2HPO4/KH2PO4 pH 7.4, 2.6 mM NADP+, 6.6 mM glucose-6-phosphate, 6.6 mM MgCl2, 0.8 U/mL glucose-6-phosphate dehydrogenase, 0.1 mM Sodium Citrate, 6.8 mM uridine diphosphate-glucuronic acid. Final concentration of analyte compounds at the beginning of the reaction was 1 uM. The reactions were incubated at 37° C. and time points of 0, 5, 15, 30, 40, 50, 60, and 70 minutes were collected for further analysis. Background data were collected using reactions without analyte compounds.
Upon collection of the reaction time points, samples were quenched with 30 uL of a solution of 72% acetonitrile, 8% methanol, 0.1% formic acid, 19.9% water, and internal standard (IS). Reaction plates were span in a centrifuge at speed of 4,000 rcf for 30 minutes and 4° C., following a dilution of the 10 uL quenched reaction into 40 uL de-ionized water, yielding assay plates.
Assay plates were analyzed using solid-state extraction coupled with quadrupole time-of-flight mass spectrometer, using Agilent QToF 6530 RapidFire 360 system, with C4 type A solid state cartridges. Analysis was performed in either positive or negative ionization modes. Mobile phases contained 0.1% formic acid in water for loading analytes onto solid state extraction cartridges, and 0.1% formic acid in acetonitrile for elution into mass spectrometer in positive ionization mode, or 0.1% acetic acid in water for loading and 0.1% acetic acid in acetonitrile for extraction in negative ionization mode. Peak-area ratios of integrated counts for individual compounds to IS were plotted as semi-logarithmic chart of log vs time. Initial, linear portion of decay was fitted to a linear regression equation to derive half time of a compound decay.
Pharmacological parameters for an analyte compound metabolism were calculated using the following equations: […]
Where. Calculation of In Vitro Intrinsic Clearance
Concentration refers to the protein concentration (mg/mL) in the reaction.
Calculation of In Vivo Intrinsic Clearance
This scales the in vitro intrinsic clearance up to the value that would be predicted for the entire mass of liver tissue (but with no restriction by blood flow). The value depends upon the size of the liver (species-dependent) and the yield of microsomal protein as appropriate (assumed to be species-independent).
Calculation of Predicted Clearance
Hepatic clearance will depend upon the inter-relationship of intrinsic clearance and hepatic blood flow and can be predicted from in vitro data using a variety of approaches.
Calculation of Hepatic Extraction
This is simply the predicted clearance expressed as a proportion of hepatic blood flow. E=CL/QH*100%
Intrinsic clearance of the instant compounds, as well as for reference compounds A-F, were calculated following the procedure above.

Data set [4] deals with pLai RLuc reporter virus in MT-4 cells. The data set can be described thus: HIV MT-4 serum shift antiviral reporter assay. The data set is classed as cell-based. Conditions: Human immunodeficiency virus 1, MT4, 72 h, read-out: RLUC CCM. The protocol: Example 48: HIV MT-4 Serum Shift Antiviral Reporter Assay
To quantify the amount of protein binding to human serum, compounds were serially diluted (1:3) in DMSO and acoustically transferred onto 384-well assay plates via a Labcyte ECHO robot. Each plate contained up to 8 test compounds, including negative and positive controls, (DMSO, 5 μM AZT respectively). Assay plates were prepared in duplicate, and tested in either CCM (cell culture media) or HS/CCM (human serum/cell culture media). MT-4 cells were first pre-infected with pLai RLuc reporter virus for 2 h at 37° C., then further diluted in either CCM (RPMI media, 10% FBS, 1% P/S) or HS/CCM (RPMI media, 10% FBS, 50% HS, 1% P/S), and subsequently added to each plate using a Biotek Micro Flow dispenser. After a 72-h incubation in a humidified and temperature controlled incubator (37° C.), Renilla Glo (Promega) was added to all assay plates and chemiluminescence read using an Envision plate-reader. EC50 values were defined as the compound concentration that causes a 50% decrease in luminescence signal, and were calculated using a sigmoidal dose-response model to generate curve fits. To determine the amount of protein binding, EC50 fold shifts (or EC50 shifts) were calculated by dividing EC50 (HS/CCM)/EC50 (CCM). […]

`[2H]C([2H])([2H])O[C@H]1CC[C@H](C)N2C[C@H]1n1cc(C(=O)NCc3ccc(F)cc3F)c(=O)c(O)c1C2=O` [Example 34, (3S,6S,7R)—N-(2,4-difluorobenzyl)-12-hydroxy-6-(methoxy-d3)-3-methyl-1,11-dioxo-1,4,5,6,7,11-hexahydro-3H-2,7-methanopyrido[1,2-a][1,4]diazonine-10-carboxamide] had a cytotoxic concentration (CC50) at 5 days in data set [1] of 15100 nM. For the same compound, the figures for the EC50 in data set [2] and in data set [4] were 0.9 nM and 0.42 nM, respectively. Further, the HLM stability in data set [3] worked out at 4.17 mL/min/kg.
In the case of `CO[C@@H]1C[C@@H](F)[C@H](C)N2C[C@H]1n1cc(C(=O)NCc3c(F)cc(F)cc3F)c(=O)c(O)c1C2=O` (single isomer, unassigned) [Example 38], in data set [1], half-maximal cytotoxicity (CC50 at 5 days) was put at 25500 nM. Further, the EC50 in data set [2] was 1.8 nM; in data set [4], 0.34 nM. Also, the HLM stability in data set [3] was determined as 3.17 mL/min/kg.
The like results for `C[C@H]1CC[C@H](O)[C@@]2(C)CN1C(=O)c1c(O)c(=O)c(C(=O)NCc3ccc(F)cc3F)cn12` [Example 43, (3S,6S,7R)—N-(2,4-difluorobenzyl)-6,12-dihydroxy-3,7-dimethyl-1,11-dioxo-1,4,5,6,7,11-hexahydro-3H-2,7-methanopyrido[1,2-a][1,4]diazonine-10-carboxamide] were, in that order, 23600 nM, 1.3 nM, 0.71 nM and 4.83 mL/min/kg.
The matching figures for `CO[C@H]1CC[C@H](CF)N2C[C@H]1n1cc(C(=O)NCc3ccc(F)cc3F)c(=O)c(O)c1C2=O` [Example 41, (3R,6S,7R)—N-(2,4-difluorobenzyl)-3-(fluoromethyl)-12-hydroxy-6-methoxy-1,11-dioxo-1,4,5,6,7,11-hexahydro-3H-2,7-methanopyrido[1,2-a][1,4]diazonine-10-carboxamide]: 19400 nM, 1.7 nM, 0.56 nM and 1.83 mL/min/kg.
The matching figures for `CO[C@H]1CC[C@@H](C)N2C[C@H]1n1cc(C(=O)NCc3ccc(F)cc3F)c(=O)c(O)c1C2=O` [Example 42, (3R,6S,7R)—N-(2,4-difluorobenzyl)-12-hydroxy-6-methoxy-3-methyl-1,11-dioxo-1,4,5,6,7,11-hexahydro-3H-2,7-methanopyrido[1,2-a][1,4]diazonine-10-carboxamide]: 50000 nM, 1.9 nM, 0.61 nM and 9.67 mL/min/kg.
For the compound `CO[C@H]1CC[C@H](C)N2C[C@H]1n1cc(C(=O)NCc3ccc(F)cc3F)c(=O)c(O)c1C2=O` [Example 3, (3S,6S,7R)—N-(2,4-difluorobenzyl)-12-hydroxy-6-methoxy-3-methyl-1,11-dioxo-1,4,5,6,7,11-hexahydro-3H-2,7-methanopyrido[1,2-a][1,4]diazonine-10-carboxamide], the CC50 at 5 days in data set [1] was determined as 16500 nM. The EC50 in data set [2] is 1.5 nM; in data set [4], 0.42 nM. In addition, the HLM stability in data set [3] came to 2.5 mL/min/kg. Besides, the “MS Cl improvement” value in data set [3] (relative to compound B) is on record as 3.2 times relative to compound B.
`[2H][C@]1(OC)C=C[C@H](C)N2C[C@H]1n1cc(C(=O)NCc3ccc(F)cc3F)c(=O)c(O)c1C2=O` [Example 21, (3S,6S,7R)—N-(2,4-difluorobenzyl)-12-hydroxy-6-methoxy-3-methyl-1,11-dioxo-1,6,7,11-tetrahydro-3H-2,7-methanopyrido[1,2-a][1,4]diazonine-6-d-10-carboxamide] showed a CC50 at 5 days in data set [1] of 19300 nM. In addition, the EC50 in data set [2] was 1.8 nM; in data set [4] it was 0.52 nM. In addition, the HLM stability in data set [3] came out at 6.17 mL/min/kg.
In data set [1], `CO[C@H]1CC[C@H](C)N2C[C@H]1n1cc(C(=O)NCc3c(F)cc(F)cc3F)c(=O)c(O)c1C2=O` [Example 1, (3S,6S,7R)-12-hydroxy-6-methoxy-3-methyl-1,11-dioxo-N-(2,4,6-trifluorobenzyl)-1,4,5,6,7,11-hexahydro-3H-2,7-methanopyrido[1,2-a][1,4]diazonine-10-carboxamide] registered a CC50 at 5 days of 34800 nM. Also, the values for the EC50 in data set [2] and in data set [4] were 1.5 nM and 0.55 nM, respectively. For the same compound, in data set [3], the HLM stability stood at 3.5 mL/min/kg. Besides, the “MS Cl improvement” value in data set [3] (relative to compound A) is listed as 3.2 times relative to compound A.
In data set [1], `[2H]C([2H])([2H])[C@]1(O)CC[C@H](C)N2C[C@H]1n1cc(C(=O)NCc3ccc(F)cc3F)c(=O)c(O)c1C2=O` [Example 31, (1R,10S,13S)—N-[(2,4-difluorophenyl)methyl]-6,13-dihydroxy-10-methyl-5,8-dioxo-13-(trideuteriomethyl)-2,9-diazatricyclo[7.4.1.02,7]tetradeca-3,6-diene-4-carboxamide] had a half-maximal cytotoxic concentration (CC50) at 5 days of 8230 nM. For the same compound, the EC50 in data set [2] was determined as 2.1 nM; in data set [4], 0.36 nM. Also, the HLM stability in data set [3] was 3 mL/min/kg.
